From the supplement of paper PMC10307832

How the values were obtained:
Assay in all cases: relative viability (nuclei count vs DMSO), 5 days (fraction); higher = more cells survive
[1] = compound: O=c1[nH]cc(F)c(=O)[nH]1 [5-Fluorouracil] + Nc1nc2[nH]cc(CCc3ccc(C(=O)N[C@@H](CCC(=O)O)C(=O)O)cc3)c2c(=O)[nH]1 [Pemetrexed] (partner 0.2 µM)
Outline: (§1)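 Lung cancer cell lines in 1536-well plates were dosed by pin tool the day after seeding, either with one drug alone or with a fixed anchor-drug dose plus five library-drug doses (not always all listed) in √10 steps. After 5 days, cells were fixed and their nuclei stained in one step (final 0.05% Triton X-100, 1% formaldehyde, 1 ug/ml Hoechst), then counted on 4× images. Relative viability is the nuclei count in treated wells divided by that in vehicle wells. Values are medians of duplicate plates.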

[2] = compound: O=c1[nH]cc(F)c(=O)[nH]1 [5-Fluorouracil] + CCNC(=O)c1noc(-c2cc(C(C)C)c(O)cc2O)c1-c1ccc(CN2CCOCC2)cc1 [Luminespib] (partner 0.01 µM)
Outline: as §1

5-Fluorouracil + OSI-027 = compound: O=c1[nH]cc(F)c(=O)[nH]1 [5-Fluorouracil] + COc1cccc2cc(-c3nc([C@H]4CC[C@H](C(=O)O)CC4)n4ncnc(N)c34)[nH]c12 [OSI-027] (partner 0.5 µM)
Outline: as §1

[3] = compound: CN[C@@H]1C[C@H]2O[C@@](C)([C@@H]1OC)n1c3ccccc3c3c4c(c5c6ccccc6n2c5c31)C(=O)NC4 [Staurosporine] + C[C@]1(O)C[C@@H](c2nc(-c3ccc4ccc(-c5ccccc5)nc4c3)c3c(N)nccn32)C1 [Linsitinib] (partner 1 µM)
Outline: as §1

Cell Line	relative viability ([1]; first compound 0.02 µM)	relative viability ([1]; first compound 0.2 µM)	relative viability ([1]; first compound 0.6325 µM)	relative viability ([1]; first compound 2 µM)	relative viability ([2]; first compound 0.02 µM)	relative viability ([2]; first compound 0.2 µM)	relative viability ([2]; first compound 0.6325 µM)	relative viability ([2]; first compound 2 µM)	relative viability (5-Fluorouracil + OSI-027; first compound 0.02 µM)	relative viability (5-Fluorouracil + OSI-027; first compound 0.2 µM)	relative viability (5-Fluorouracil + OSI-027; first compound 0.6325 µM)	relative viability (5-Fluorouracil + OSI-027; first compound 2 µM)	relative viability ([3]; first compound 0.005 µM)	relative viability ([3]; first compound 0.01581 µM)	relative viability ([3]; first compound 0.05 µM)	relative viability ([3]; first compound 0.1581 µM)	relative viability ([3]; first compound 0.5 µM)
201T	0.322	0.267	0.274	0.248	1.03	0.809	0.352	0.301	0.964	0.274	0.161	0.128	1.02	1	0.814	0.688	0.575
A549													0.366	0.227	0.0839	0.0873	0.0598
A-427	0.852	0.984	0.866	0.55	1.01	0.883	0.682	0.548	0.461	0.557	0.359	0.259	1.05		0.43	0.313	0.189
ABC-1					0.577	0.531	0.533	0.465	0.453	0.518	0.53	0.261	0.195	0.209	0.145	0.108	0.0957
BEN	0.817	0.837	0.758	0.903	0.18	0.399	0.543	0.371	0.303	0.312	0.315	0.326	1.23	0.923	0.436	0.52	0.245
CAL-12T	1.19	1	0.942	0.657	0.299	0.34	0.363	0.3	0.771	0.625	0.385	0.352	0.57	0.334	0.213	0.136	0.115
COR-L23	0.194	0.195	0.194	0.185	0.86	0.691	0.512	0.168	0.794	0.539	0.323	0.245	0.534	0.27	0.134	0.0552	0.041
COR-L 105	1.2	1.14	0.87	0.614	0.638	0.909	0.685	0.439	0.649	0.899	0.66	0.443	0.561	0.353	0.246	0.261	0.213
Calu-6													0.92	0.776	0.3	0.0858	0.0592
ChaGo-K-1	0.252	0.262	0.26	0.261	0.6	0.513	0.406	0.358	0.608	0.536	0.401	0.425					
EBC-1													0.738	0.523	0.181	0.122	0.111
EKVX	0.305	0.283			0.647		0.166	0.152			0.148	0.134	0.624	0.357	0.22	0.183	0.109
EMC-BAC-2	0.47	0.479	0.419	0.484	1.12	1.23	1.22	1.16	0.363	0.407	0.376	0.361	0.457	0.394	0.122	0.152	0.133
EPLC-272H	0.242	0.23	0.269	0.274	0.313	0.296	0.208	0.198	0.272	0.257	0.263	0.212	1.17	0.732	0.352	0.25	0.234
H3255	0.557	0.6	0.557	0.449	0.945	1	0.83	0.741	0.609	0.686	0.699	0.574	0.814	0.549	0.303	0.226	0.116
HARA	0.244	0.231	0.212	0.289	0.964	0.739	0.705	0.509	0.475	0.737	0.559	0.308	0.762	0.192	0.155	0.0968	0.0872
HCC-15	0.219	0.217	0.21	0.218	0.293	0.294	0.292	0.225	0.781	0.718	0.442	0.311	0.921		0.656	0.444	0.276
HCC-44	0.641	0.625	0.569	0.471	1.29	1.22	0.853	0.355	0.664	0.479	0.483	0.31	0.328	0.194	0.101	0.111	0.0981
HCC-78	0.924	0.866	0.858	0.915					0.618	0.369	0.335	0.306	0.613	0.457	0.363	0.295	0.268
HCC-366	0.142	0.145	0.0984	0.123					1.18	0.868	0.439	0.144	0.623		0.0843	0.0298	0.013
HCC-827	0.238	0.239	0.273	0.262	0.399	0.691	0.465	0.239	0.767	0.832	0.681	0.391	0.992	0.853	0.726	0.769	0.624
HOP-62	0.323	0.361	0.287	0.342	0.953	0.92	0.853	0.855	0.87	0.938	0.846	0.633	1.07	0.604	0.117	0.111	0.108
IA-LM														0.271	0.16	0.128	0.07

Cell Line	relative viability ([1]; first compound 0.02 µM)	relative viability ([1]; first compound 0.2 µM)	relative viability ([1]; first compound 0.6325 µM)	relative viability ([1]; first compound 2 µM)	relative viability ([2]; first compound 0.02 µM)	relative viability ([2]; first compound 0.2 µM)	relative viability ([2]; first compound 0.6325 µM)	relative viability ([2]; first compound 2 µM)	relative viability (5-Fluorouracil + OSI-027; first compound 0.02 µM)	relative viability (5-Fluorouracil + OSI-027; first compound 0.2 µM)	relative viability (5-Fluorouracil + OSI-027; first compound 0.6325 µM)	relative viability (5-Fluorouracil + OSI-027; first compound 2 µM)	relative viability ([3]; first compound 0.005 µM)	relative viability ([3]; first compound 0.01581 µM)	relative viability ([3]; first compound 0.05 µM)	relative viability ([3]; first compound 0.1581 µM)	relative viability ([3]; first compound 0.5 µM)
LC-2-ad	0.258	0.286	0.282	0.272	1.09	0.666	0.407	0.337	0.91	0.582	0.404	0.322	0.817	0.434	0.192	0.0865	0.0668
LCLC-97TM1	0.146	0.218	0.165	0.176	0.627	0.808	0.613	0.334	0.392	0.531	0.557	0.379	0.237	0.163	0.163	0.207	0.144
LCLC-103H	0.481	0.413	0.464	0.384	0.951	0.999	0.521	0.28	0.503	0.59	0.379	0.311	1.25	0.717	0.352	0.206	0.212
LK-2	0.294	0.35	0.264	0.201					0.196	0.188	0.199	0.165	0.698	0.506	0.753	0.473	0.154
LOU-NH91	0.359	0.342	0.317	0.309	0.37	0.355	0.332	0.277	0.694	0.788	0.692	0.432	0.979	0.744	0.63	0.365	0.274
LU99A	0.185	0.177	0.154	0.171	0.245	0.281	0.234		0.262	0.272	0.311	0.223	0.441	0.212	0.201	0.182	0.14
LXF-289	0.807	0.704	0.494	0.363	0.701	0.435	0.251	0.238	0.808	0.612	0.356	0.258	0.846		0.203	0.1	0.0809
NCI-H23	0.944	0.63	0.408	0.337	0.201	0.205	0.196	0.212	0.618	0.56	0.388	0.252	0.419	0.234	0.213	0.219	0.155
NCI-H322M	0.602	0.598	0.549	0.512	0.841	1	0.724	0.552	0.534	0.563	0.486	0.449	1.12	0.648	0.56	0.427	0.458
NCI-H358	0.177	0.182	0.172	0.169	0.388	0.307	0.308	0.145	0.819	0.888	0.508	0.289	0.573	0.281	0.189	0.152	0.122
NCI-H441	0.262	0.27	0.235	0.239	0.447	0.39	0.384	0.242	0.779	0.523	0.322	0.326	0.304	0.126	0.153	0.153	0.141
NCI-H460	0.0627	0.0623	0.0575	0.0952	0.0365	0.0336	0.0342	0.0284	0.803	0.35	0.0996	0.0548	0.406	0.169	0.0258	0.0051	0.0055
NCI-H520	0.625	0.742	0.541	0.41	0.19	0.236	0.19	0.21	0.191	0.294	0.252	0.226	1.05	0.824	0.604	0.213	0.128
NCI-H522	0.891	1.1	1.03	0.95	1.14	1.19	1.17	0.961	0.714	0.714	0.722	0.705					
NCI-H727					0.329	0.402	0.345	0.295	0.639	0.651	0.647	0.574	0.225	0.234	0.268	0.277	0.129
NCI-H1299													0.785	0.305	0.206	0.143	0.113
NCI-H1623					0.395	0.361	0.412	0.364	0.384	0.339	0.339	0.323					
NCI-H1648	0.816	0.864	0.572	0.332					0.246	0.269	0.264	0.245					
NCI-H1650	0.362	0.335	0.353	0.286	0.213	0.185	0.246	0.211	0.515	0.496	0.383	0.349					
NCI-H1703													0.561	0.291	0.17	0.146	0.083
NCI-H2170	0.363	0.266	0.242	0.255	0.507	0.541	0.503	0.3	0.681	0.594	0.459	0.37					
NCI-H2342	0.744	0.84	0.776	0.725	0.807	0.731	0.616	0.467	0.698	0.731	0.735	0.638					
SW 900	0.468	0.491	0.518	0.385	0.153	0.161	0.213	0.196	0.505	0.501	0.44	0.423					
